Assay results reported in patent publication US7211572B2 (Japan Tobacco Inc., priority 2003, dated 2007).
Counter-ions that a name gives are not always drawn.

Target: T1, HIV integrase (Human immunodeficiency virus type 1 group M subtype B, UniProt P12497, F1332H)
T1 construct: HIV integrase full length gene; made in house; host or cells: Escherichia coli BL21(DE3), plasmid pET21a-INH
Assay: Determination of enzyme (HIV integrase) inhibitory activity
Assay type: biochemical
Settings: recombinant HIV integrase (F185H), strand transfer ELISA, absorbance at 450 nm
In short: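 Full-length integrase with F185H, expressed in E. coli and purified, was reacted for 60 min at 37 °C with compound and biotinylated donor DNA bound to streptavidin plates. Target DNA was added for 10 min, then anti-digoxigenin-peroxidase detection at A450; IC50 from % inhibition versus enzyme-free blank.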

Row | SMILES | IC50
1 | CCNc1cn2ccn(Cc3cccc(Cl)c3)c(=O)c2c(O)c1=O [Example 285, 2-(3-chlorobenzyl)-7-ethylamino-9-hydroxy-2H-pyrido[1,2-a]pyrazine-1,8-dione hydrochloride] | 10 to 100 nM
2 | O=C(Nc1cn2ccn(Cc3cccc(Cl)c3)c(=O)c2c(O)c1=O)c1cccnc1 [Example 286, N-[2-(3-chlorobenzyl)-9-hydroxy-1,8-dioxo-1,8-dihydro-2H-pyrido[1,2-a]pyrazin-7-yl]nicotinamide trifluoroacetate] | < 10 nM
3 | O=C(Nc1cn2ccn(Cc3cccc(Cl)c3)c(=O)c2c(O)c1=O)c1ccncc1 [Example 287, N-[2-(3-chlorobenzyl)-9-hydroxy-1,8-dioxo-1,8-dihydro-2H-pyrido[1,2-a]pyrazin-7-yl]isonicotinamide trifluoroacetate] | < 10 nM
4 | O=C(Nc1cn2ccn(Cc3cccc(Cl)c3)c(=O)c2c(O)c1=O)c1ccco1 [Example 288, N-[2-(3-chlorobenzyl)-9-hydroxy-1,8-dioxo-1,8-dihydro-2H-pyrido[1,2-a]pyrazin-7-yl]furan-2-carboxamide] | < 10 nM
5 | O=C(Nc1cn2ccn(Cc3cccc(Cl)c3)c(=O)c2c(O)c1=O)c1cccs1 [Example 289, N-[2-(3-chlorobenzyl)-9-hydroxy-1,8-dioxo-1,8-dihydro-2H-pyrido[1,2-a]pyrazin-7-yl]thiophene-2-carboxamide] | < 10 nM
6 | O=C1c2c(O)c(=O)c(-c3cccnn3)cn2CCN1Cc1cccc(Cl)c1 [Example 290, 2-(3-chlorobenzyl)-9-hydroxy-7-(pyridazin-3-yl)-3,4-dihydro-2H-pyrido[1,2-a]pyrazine-1,8-dione hydrochloride] | 10 to 100 nM
7 | O=C1c2c(O)c(=O)c(-c3nccs3)cn2CCN1Cc1ccc(F)c(F)c1 [Example 291, 2-(3,4-difluorobenzyl)-9-hydroxy-7-(thiazol-2-yl)-3,4-dihydro-2H-pyrido[1,2-a]pyrazine-1,8-dione] | 10 to 100 nM
8 | O=C1c2c(O)c(=O)c(-c3nccs3)cn2CCN1Cc1cccc(Cl)c1F [Example 292, 2-(3-chloro-2-fluorobenzyl)-9-hydroxy-7-(thiazol-2-yl)-3,4-dihydro-2H-pyrido[1,2-a]pyrazine-1,8-dione] | < 10 nM
9 | O=C1c2c(O)c(=O)c(-c3nccs3)cn2CCN1Cc1ccc(Cl)cc1 [Example 293, 2-(4-chlorobenzyl)-9-hydroxy-7-(thiazol-2-yl)-3,4-dihydro-2H-pyrido[1,2-a]pyrazine-1,8-dione] | 10 to 100 nM
10 | O=C1c2c(O)c(=O)c(-c3nccs3)cn2CCN1Cc1ccc(Cl)c(F)c1 [Example 294, 2-(4-chloro-3-fluorobenzyl)-9-hydroxy-7-(thiazol-2-yl)-3,4-dihydro-2H-pyrido[1,2-a]pyrazine-1,8-dione] | < 10 nM
11 | COc1cc(Cl)ccc1CN1CCn2cc(-c3nccs3)c(=O)c(O)c2C1=O [Example 295, 2-(4-chloro-2-methoxybenzyl)-9-hydroxy-7-(thiazol-2-yl)-3,4-dihydro-2H-pyrido[1,2-a]pyrazine-1,8-dione] | 10 to 100 nM
12 | Cn1cccc1C(=O)Nc1cn2ccn(Cc3cccc(Cl)c3)c(=O)c2c(O)c1=O [Example 296, N-[2-(3-chlorobenzyl)-9-hydroxy-1,8-dioxo-1,8-dihydro-2H-pyrido[1,2-a]pyrazin-7-yl]-1-methyl-1H-pyrrole-2-carboxamide] | < 10 nM
13 | O=C1c2c(O)c(=O)c(-c3nccs3)cn2CCN1CCCc1ccc(Cl)cc1 [Example 297, 2-[3-(4-chlorophenyl)propyl]-9-hydroxy-7-(thiazol-2-yl)-3,4-dihydro-2H-pyrido[1,2-a]pyrazine-1,8-dione hydrochloride] | 10 to 100 nM
14 | O=C1c2c(O)c(=O)c(-c3nccs3)cn2CCN1CCCc1ccccc1Cl [Example 298, 2-[3-(2-chlorophenyl)propyl]-9-hydroxy-7-(thiazol-2-yl)-3,4-dihydro-2H-pyrido[1,2-a]pyrazine-1,8-dione hydrochloride] | < 10 nM
15 | O=C1c2c(O)c(=O)c(-c3nccs3)cn2CCN1CCCc1cccc(Cl)c1 [Example 299, 2-[3-(3-chlorophenyl)propyl]-9-hydroxy-7-(thiazol-2-yl)-3,4-dihydro-2H-pyrido[1,2-a]pyrazine-1,8-dione hydrochloride] | 10 to 100 nM
16 | Cc1nsc(-c2cn3c(c(O)c2=O)C(=O)N(Cc2cccc(Cl)c2)CC3)n1 [Example 300, 2-(3-chlorobenzyl)-9-hydroxy-7-(3-methyl-1,2,4-thiadiazol-5-yl)-3,4-dihydro-2H-pyrido[1,2-a]pyrazine-1,8-dione hydrochloride] | 10 to 100 nM
17 | CNC(=O)c1cc(F)ccc1CN1CCn2cc(-c3nccs3)c(=O)c(O)c2C1=O [Example 301, 5-fluoro-2-[9-hydroxy-1,8-dioxo-7-(thiazol-2-yl)-1,3,4,8-tetrahydro-pyrido[1,2-a]pyrazin-2-ylmethyl]-N-methylbenzamide] | 100 to 1000 nM
18 | CC(=O)N(CC(C)C)c1cn2ccn(Cc3cccc(Cl)c3)c(=O)c2c(O)c1=O [Example 302, N-[2-(3-chlorobenzyl)-9-hydroxy-1,8-dioxo-1,8-dihydro-2H-pyrido[1,2-a]pyrazin-7-yl]-N-isobutylacetamide] | 10 to 100 nM
19 | CC(=O)Nc1cn2ccn(Cc3ccc(F)cc3)c(=O)c2c(O)c1=O [Example 303, N-[2-(4-fluorobenzyl)-9-hydroxy-1,8-dioxo-1,8-dihydro-2H-pyrido[1,2-a]pyrazin-7-yl]acetamide] | 10 to 100 nM
20 | O=C(Nc1cn2ccn(Cc3ccc(F)cc3)c(=O)c2c(O)c1=O)c1ccccc1 [Example 304, N-[2-(4-fluorobenzyl)-9-hydroxy-1,8-dioxo-1,8-dihydro-2H-pyrido[1,2-a]pyrazin-7-yl]benzamide] | < 10 nM
21 | CS(=O)(=O)Nc1cn2ccn(Cc3ccc(F)cc3)c(=O)c2c(O)c1=O [Example 305, N-[2-(4-fluorobenzyl)-9-hydroxy-1,8-dioxo-1,8-dihydro-2H-pyrido[1,2-a]pyrazin-7-yl]methanesulfonamide] | < 10 nM
22 | O=c1c(-c2ccccn2)cn2ccn(Cc3ccc(F)cc3)c(=O)c2c1O [Example 306, 2-(4-fluorobenzyl)-9-hydroxy-7-(pyridin-2-yl)-2H-pyrido[1,2-a]pyrazine-1,8-dione trifluoroacetate] | 10 to 100 nM
23 | O=C1c2c(O)c(=O)c(-c3nccs3)cn2CCN1Cc1ccccc1F [Example 307, 2-(2-fluorobenzyl)-9-hydroxy-7-(thiazol-2-yl)-3,4-dihydro-2H-pyrido[1,2-a]pyrazine-1,8-dione] | 100 to 1000 nM
24 | O=C1c2c(O)c(=O)c(-c3nccs3)cn2CCN1Cc1cccc(F)c1 [Example 308, 2-(3-fluorobenzyl)-9-hydroxy-7-(thiazol-2-yl)-3,4-dihydro-2H-pyrido[1,2-a]pyrazine-1,8-dione] | 10 to 100 nM
25 | O=C1c2c(O)c(=O)c(-c3nccs3)cn2CCN1Cc1ccc(F)cc1 [Example 309, 2-(4-fluorobenzyl)-9-hydroxy-7-(thiazol-2-yl)-3,4-dihydro-2H-pyrido[1,2-a]pyrazine-1,8-dione] | 10 to 100 nM
26 | O=C1c2c(O)c(=O)c(-c3nccs3)cn2CCN1Cc1ccccc1Cl [Example 310, 2-(2-chlorobenzyl)-9-hydroxy-7-(thiazol-2-yl)-3,4-dihydro-2H-pyrido[1,2-a]pyrazine-1,8-dione] | 100 to 1000 nM
